The numbers were not newly measured in patent US20230190651A1, “Topical Aerosol Foams” (ARCUTIS BIOTHERAPEUTICS, INC., priority 2021, published 2023), which cites them from elsewhere.

Structures can show the parent of a compound that is named as a salt.

Consider `O=C(O)CCCCCCCC(=O)O` [azelaic acid], for which the “Water Solubility” value is 2,140 mg/liter.

In the case of `C=C1/C(=C\C=C2/CCC[C@]3(C)[C@@H]([C@H](C)/C=C/[C@@H](O)C4CC4)CC[C@@H]23)C[C@@H](O)C[C@@H]1O` [calcipotriene], the “Water Solubility” value was 13.5 mg/L.

`CCC[C@@H]1C[C@@H](C(=O)N[C@@H]([C@H]2O[C@H](SC)[C@H](OP(=O)(O)O)[C@@H](O)[C@H]2O)[C@H](C)Cl)N(C)C1` [clindamycin phosphate]: the “Water Solubility” value is recorded as 250,000 mg/liter.

With `CCC(=O)O[C@]1(C(=O)CCl)[C@@H](C)C[C@H]2[C@@H]3CCC4=CC(=O)C=C[C@]4(C)[C@@]3(F)[C@@H](O)C[C@@]21C` [clobetasol propionate], the “Water Solubility” value was 4 mg/L.

In the case of `CC1(C)O[C@@H]2C[C@H]3[C@@H]4CCC5=CC(=O)C=C[C@]5(C)[C@H]4[C@@H](O)C[C@]3(C)[C@]2(C(=O)CO)O1` [desonide], the “Water Solubility” value is 59 mg/L.

As to `CCC(=O)O[C@]1(C(=O)CCl)[C@@H](C)C[C@H]2[C@@H]3C[C@H](F)C4=CC(=O)C=C[C@]4(C)[C@@]3(F)[C@@H](O)C[C@@]21C` [halobetasol propionate], the “Water Solubility” value was 14 mg/L.

As for `CC(=O)N1CCN(c2ccc(OCC3COC(Cn4ccnc4)(c4ccc(Cl)cc4Cl)O3)cc2)CC1` (stereo not drawn) [ketoconazole], the “Water Solubility” value was 0.09 mg/L.

Regarding `Cc1cc(C(C)(C)C)c(O)c(C)c1CC1=NCCN1` [oxymetazoline hydrochloride], the “Water Solubility” value is given as 145,000 mg/liter.

On to `O=C(Nc1c(Cl)cncc1Cl)c1ccc(OC(F)F)c(OCC2CC2)c1` [roflumilast], for which the “Water Solubility” value was 0.54 mg/L.

As to `CCOC(=O)c1ccc(C#Cc2ccc3c(c2)C(C)(C)CCS3)nc1` [tazarotene], the “Water Solubility” value is 32 mg/L.

On to `NC(N)=O` [urea], for which the “Water Solubility” value is reported as 1,190,000 mg/liter.

On to ivermectin, for which the “Water Solubility” value was 4 mg/L.
